Values of other authors as cited in article PMC8923172 (Antimicrobial Agents and Chemotherapy, 2022).

Tested on: LPS-induced ALI
Details: 2 mg/kg; cited from earlier work

## C[C@@H]1C[C@H]2[C@@H]3CCC4=CC(=O)C=C[C@]4(C)[C@@]3(F)[C@@H](O)C[C@]2(C)[C@@]1(O)C(=O)CO [dexamethasone]
  decrease in IFN-γ in bronchoalveolar lavage fluid: ~43%
  decrease in IL-6 in bronchoalveolar lavage fluid: approximately 26%
  decrease in IP-10 (CXCL10) in bronchoalveolar lavage fluid: ~50%
